Paper PMC11357638 (Molecules, 2024)
Changes are numbered by the printed parent chain. “And” between values parts separate entries of the source, which are not always exact repeats. Equal values may be shown once.

Experiments:
hTRPV3 single channel = biological target: T1, hTRPV3 single channel (Homo sapiens, UniProt Q8NET8); assay: Inside-out single-channel recording of hTRPV3; format: cell-based; details: CA at 500 μM co-applied with 50 μM 2-APB, −60 mV
T1 construct: expressed in transfected cells; host or cells: HEK293T
T1 sequence (Q8NET8 1-790): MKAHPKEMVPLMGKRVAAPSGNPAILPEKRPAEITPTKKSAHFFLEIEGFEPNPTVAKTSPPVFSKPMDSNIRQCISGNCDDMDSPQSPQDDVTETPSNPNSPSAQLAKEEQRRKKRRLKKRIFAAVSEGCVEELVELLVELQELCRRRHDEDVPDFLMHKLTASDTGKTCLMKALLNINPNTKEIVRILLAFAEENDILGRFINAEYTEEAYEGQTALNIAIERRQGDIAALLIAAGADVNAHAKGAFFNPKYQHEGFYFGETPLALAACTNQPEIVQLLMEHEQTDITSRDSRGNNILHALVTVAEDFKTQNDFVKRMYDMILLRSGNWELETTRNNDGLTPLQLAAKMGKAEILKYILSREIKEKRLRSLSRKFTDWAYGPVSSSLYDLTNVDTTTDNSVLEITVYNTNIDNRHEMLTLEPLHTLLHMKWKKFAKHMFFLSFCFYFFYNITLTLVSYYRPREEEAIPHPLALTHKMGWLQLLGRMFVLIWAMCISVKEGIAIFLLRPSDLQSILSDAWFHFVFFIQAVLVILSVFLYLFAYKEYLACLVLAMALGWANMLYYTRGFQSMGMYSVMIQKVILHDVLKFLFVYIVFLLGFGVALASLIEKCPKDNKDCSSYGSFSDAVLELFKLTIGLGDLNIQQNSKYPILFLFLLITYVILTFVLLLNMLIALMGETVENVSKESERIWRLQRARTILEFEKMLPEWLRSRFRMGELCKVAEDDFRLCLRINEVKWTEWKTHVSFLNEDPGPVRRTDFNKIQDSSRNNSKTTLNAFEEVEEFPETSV

[1] = biological target: T2, human TRPA1 (hTRPA1) channels (Homo sapiens, UniProt O75762); assay: Whole-cell patch-clamp selectivity, hTRPA1 in HEK293T cells; format: cell-based; details: CA at 1000 μM, current induced by AITC at 300 μM, mean ± SD, n = 5
T2 construct: expressed in transfected cells; host or cells: HEK293T

[2] = biological target: T3, human TRPV4 (hTRPV4) channels (Homo sapiens, UniProt Q9HBA0); assay: Whole-cell patch-clamp selectivity, hTRPV4 in HEK293T cells; format: cell-based; details: HEK-293T; 1000 μM CA, current caused by 0.1 μM GSK1016790A, mean ± SD, n = 5
T3 construct: expressed in transfected cells; host or cells: HEK293T

hTRPV3 T636A mutant = biological target: T4, hTRPV3 T636A mutant (Homo sapiens, UniProt Q8NET8, T636A); assay: Whole-cell patch-clamp of hTRPV3 T636A mutant in HEK293T cells; format: cell-based
T4 construct: expressed in transfected cells; host or cells: HEK293T
T4 sequence (Q8NET8 1-790 T636A): T1 sequence (Q8NET8 1-790) with T636A

hTRPV3 F666A mutant = biological target: T5, hTRPV3 F666A mutant (Homo sapiens, UniProt Q8NET8, F666A); assay: cell-based
T5 sequence (Q8NET8 1-790 F666A): T1 sequence (Q8NET8 1-790) with F666A

T3 sequence (Q9HBA0 whole entry): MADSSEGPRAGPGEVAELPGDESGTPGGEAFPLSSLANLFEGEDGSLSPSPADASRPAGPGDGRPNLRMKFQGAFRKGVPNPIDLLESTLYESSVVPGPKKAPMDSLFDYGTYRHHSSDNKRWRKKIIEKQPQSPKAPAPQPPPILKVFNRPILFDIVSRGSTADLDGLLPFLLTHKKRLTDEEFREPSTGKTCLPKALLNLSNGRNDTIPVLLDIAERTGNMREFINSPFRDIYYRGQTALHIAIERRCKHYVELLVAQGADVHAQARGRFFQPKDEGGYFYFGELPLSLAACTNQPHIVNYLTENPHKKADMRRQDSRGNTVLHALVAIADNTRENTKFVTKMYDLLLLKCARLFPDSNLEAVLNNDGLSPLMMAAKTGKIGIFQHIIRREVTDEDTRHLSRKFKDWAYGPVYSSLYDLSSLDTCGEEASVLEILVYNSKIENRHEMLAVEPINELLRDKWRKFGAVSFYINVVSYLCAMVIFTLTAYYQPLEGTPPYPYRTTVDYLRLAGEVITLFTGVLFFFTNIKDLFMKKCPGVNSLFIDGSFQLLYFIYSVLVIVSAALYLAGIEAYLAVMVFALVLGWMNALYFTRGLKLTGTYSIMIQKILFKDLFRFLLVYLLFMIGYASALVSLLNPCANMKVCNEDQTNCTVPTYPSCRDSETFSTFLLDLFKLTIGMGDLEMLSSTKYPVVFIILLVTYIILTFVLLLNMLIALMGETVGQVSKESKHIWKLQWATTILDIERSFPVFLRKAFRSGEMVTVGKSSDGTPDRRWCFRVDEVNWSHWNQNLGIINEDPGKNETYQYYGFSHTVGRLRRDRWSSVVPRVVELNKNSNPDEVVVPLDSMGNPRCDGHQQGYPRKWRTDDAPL
T2 sequence (O75762 whole entry): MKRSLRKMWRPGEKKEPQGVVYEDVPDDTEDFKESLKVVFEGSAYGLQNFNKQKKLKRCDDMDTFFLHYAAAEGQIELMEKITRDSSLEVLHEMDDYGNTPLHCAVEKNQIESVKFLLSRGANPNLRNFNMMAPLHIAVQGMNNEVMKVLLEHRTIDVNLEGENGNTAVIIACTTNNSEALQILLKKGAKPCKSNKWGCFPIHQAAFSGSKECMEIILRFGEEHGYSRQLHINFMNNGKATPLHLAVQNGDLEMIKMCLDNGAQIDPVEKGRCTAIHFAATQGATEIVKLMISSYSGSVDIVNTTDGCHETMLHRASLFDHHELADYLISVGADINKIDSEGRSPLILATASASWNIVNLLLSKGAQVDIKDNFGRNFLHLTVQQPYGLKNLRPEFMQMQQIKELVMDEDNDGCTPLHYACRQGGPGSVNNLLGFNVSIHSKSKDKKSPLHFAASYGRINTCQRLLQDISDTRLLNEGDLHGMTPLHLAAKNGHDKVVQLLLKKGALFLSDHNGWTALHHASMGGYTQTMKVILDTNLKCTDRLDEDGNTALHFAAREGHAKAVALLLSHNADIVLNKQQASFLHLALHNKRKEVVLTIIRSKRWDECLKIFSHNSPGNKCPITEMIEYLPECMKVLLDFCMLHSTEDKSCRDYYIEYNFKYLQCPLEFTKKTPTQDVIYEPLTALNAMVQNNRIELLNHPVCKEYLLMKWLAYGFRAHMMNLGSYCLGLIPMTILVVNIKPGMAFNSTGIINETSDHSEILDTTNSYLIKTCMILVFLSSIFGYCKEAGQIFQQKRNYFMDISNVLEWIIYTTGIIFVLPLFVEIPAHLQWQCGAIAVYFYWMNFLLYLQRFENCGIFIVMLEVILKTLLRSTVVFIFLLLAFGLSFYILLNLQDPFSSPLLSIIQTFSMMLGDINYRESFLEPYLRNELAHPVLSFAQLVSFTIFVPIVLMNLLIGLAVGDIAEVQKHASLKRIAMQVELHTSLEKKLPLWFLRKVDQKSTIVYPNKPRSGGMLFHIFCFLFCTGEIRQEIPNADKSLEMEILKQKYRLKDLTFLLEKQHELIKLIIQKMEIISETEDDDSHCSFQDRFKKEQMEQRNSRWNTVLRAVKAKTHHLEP

open frequency (Freq) (hTRPV3 single channel): 15.96 ± 2.25 Hz
inhibition of human TRPA1 current [1]: about 22.9 ± 12.0%
inhibition at 1000 µM [2]: ~4.6%
IC50 (hTRPV3 T636A mutant; T636A hTRPV3, 50 μM 2-APB, +80 mV, Hill fit, read-out: IC50, inhibition of T636A mutant outward currents): > 1000 µM and 1000 µM
channel current inhibition by 500 μM CA compared to WT (hTRPV3 T636A mutant; T636A mutant, 50 μM 2-APB, 500 μM CA): significantly diminished
IC50 (hTRPV3 F666A mutant): 105 ± 4.8 µM
Structure (SMILES): O=C(O)/C=C/c1ccc(O)c(O)c1 [CA, caffeic acid]
